The record followed here is patent US12384780B2, “PARP1 inhibitors and uses thereof” (XinThera, Inc., priority 2022, dated 2025).

One test deals with T1, PARP1 (Homo sapiens, UniProt P09874).
T1 construct: made in house
As to the kind of experiment: Biochemical fluorescent polarization (FP) assay, displacement of PARPi-FL, PARP1. The format is binding. To be noted: 20 nM protein, 3 nM PARPi-FL, 4 h at room temperature; read-out: FP PARP1 pIC50 (converted). The protocol: (§1) Compounds were characterized using an assay measuring the displacement of a commercially available fluorescently labeled PARP 1/2 inhibitor (PARPi-FL, Tocris Biosciences, #6461) as exemplified in assays performed in WO2014/064149 and WO2021/013735A1. The assay was performed utilizing the following method: Compounds were dissolved in DMSO an Echo550 liquid handler was utilized to make serial dilations in the desired concentration range in Optiplate-384F plates. 100% DMSO was used for the high (with protein) and low (without protein) control samples. 20 nL of compound or DMSO alone was added to individual assay plate wells. PARP1 and PARP2 protein were expressed, purified, and diluted in assay buffer containing 50 mM Tris pH 8.0, 0.001% Triton X-100, 10 mM MgCl2, 150 mM NaCl to a final concentration of 20 nM. The PARPi-FL was then added at a final concentration of 3 nM. The assay plate was centrifuged at 1000 rpm for 1 min and incubated for 4 h at room temperature. […] [formula]

The subject of a further test is DLD-1 BRCA2(−/−) cells. As to the kind of experiment: Cell growth inhibition assay (CellTiter-Glo), DLD-1 BRCA2(−/−). The format is cell-based. Conditions: Homo sapiens, DLD-1, 168 h; 200 cells/well, 7 days, CellTiter Glo 2.0; read-out: DLD-1 BRCA2(−/−) pEC50 (converted). As for the experimental part:
(§2) Cell proliferation was measured through the cell viability assay using DLD-1 BRCA2(−/−) and parental isogenic pair and MDA-MB-436 (mutated BRCA1) cell lines. The CellTiter-Glo (CTG) based cell viability assay is designed to determine the number of viable cells in the culture because of compound effect, by quantifying ATP, which indicates the presence of metabolically active cells.
(§3) DLD-1 BRCA2(−/−) and parental isogenic pair were cultured in RPMI 1640 supplemented with […] (FBS), and […] cells were cultured in DMEM supplemented with 10% FBS. Both were cultured at 37° C. with […]. Invention compounds were distributed to the 384 well plate (Corning, 3764) using Echo acoustic liquid handler to form a 1:3 serially diluted final concentration with top dose of 10 or 30 μM. The cells were seeded into the plate in the density of 50 cells/well (DLD-1 parental), 200 cells/well (DLD-1 BRCA2−/−), or 500 cells/well (MDA-MB-436). After a short spun, the cells were cultured in a well moisturized incubator at 37° C. with 5% CO2 for 7 days without disturbance. The cell viability was measured by CellTiter Glo 2.0 assay kit (Promega, G9243), and growth inhibition rate was calculated and plotted against final compound concentration, and the data were fitted in Xfit to generate IC50 values.

A further test deals with T2, PARP2 (Homo sapiens, UniProt Q9UGN5).
T2 construct: made in house
T2 sequence (Q9UGN5 whole entry): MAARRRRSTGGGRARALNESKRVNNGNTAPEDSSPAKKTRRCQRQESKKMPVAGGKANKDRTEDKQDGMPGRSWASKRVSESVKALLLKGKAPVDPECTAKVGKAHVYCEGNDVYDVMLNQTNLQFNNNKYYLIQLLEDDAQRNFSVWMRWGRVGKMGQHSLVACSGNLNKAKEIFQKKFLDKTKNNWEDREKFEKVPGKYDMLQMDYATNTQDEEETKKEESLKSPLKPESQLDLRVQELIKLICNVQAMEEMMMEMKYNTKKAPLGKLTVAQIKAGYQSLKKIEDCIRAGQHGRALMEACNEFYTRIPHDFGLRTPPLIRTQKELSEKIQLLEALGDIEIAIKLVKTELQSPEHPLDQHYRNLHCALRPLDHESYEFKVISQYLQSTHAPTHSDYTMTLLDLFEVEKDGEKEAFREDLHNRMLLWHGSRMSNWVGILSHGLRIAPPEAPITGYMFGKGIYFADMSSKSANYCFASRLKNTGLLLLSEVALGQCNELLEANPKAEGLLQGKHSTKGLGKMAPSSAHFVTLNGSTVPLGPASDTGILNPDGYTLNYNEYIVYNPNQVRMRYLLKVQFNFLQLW
Kind of test: Biochemical fluorescent polarization (FP) assay, displacement of PARPi-FL, PARP2. The format is binding. To be noted: 20 nM protein, 3 nM PARPi-FL, 4 h at room temperature; read-out: FP PARP2 pIC50 (converted). The protocol:
as §1

Test [1] concerns MDA-MB-436 (mutated BRCA1) cells. Kind of test: Cell growth inhibition assay (CellTiter-Glo), MDA-MB-436. The format is cell-based. To be noted: Homo sapiens, MDA-MB-436, 168 h, 500 cells/well, 7 days, CellTiter Glo 2.0; read-out: MDA-MB-436 pEC50 (converted). As for the experimental part: as §2, §3
In general terms: ATP-based viability assays read luminescence as a measure of living cells.

Structures are written as SMILES. Some results are limits rather than exact numbers.

T1 sequence (P09874 whole entry): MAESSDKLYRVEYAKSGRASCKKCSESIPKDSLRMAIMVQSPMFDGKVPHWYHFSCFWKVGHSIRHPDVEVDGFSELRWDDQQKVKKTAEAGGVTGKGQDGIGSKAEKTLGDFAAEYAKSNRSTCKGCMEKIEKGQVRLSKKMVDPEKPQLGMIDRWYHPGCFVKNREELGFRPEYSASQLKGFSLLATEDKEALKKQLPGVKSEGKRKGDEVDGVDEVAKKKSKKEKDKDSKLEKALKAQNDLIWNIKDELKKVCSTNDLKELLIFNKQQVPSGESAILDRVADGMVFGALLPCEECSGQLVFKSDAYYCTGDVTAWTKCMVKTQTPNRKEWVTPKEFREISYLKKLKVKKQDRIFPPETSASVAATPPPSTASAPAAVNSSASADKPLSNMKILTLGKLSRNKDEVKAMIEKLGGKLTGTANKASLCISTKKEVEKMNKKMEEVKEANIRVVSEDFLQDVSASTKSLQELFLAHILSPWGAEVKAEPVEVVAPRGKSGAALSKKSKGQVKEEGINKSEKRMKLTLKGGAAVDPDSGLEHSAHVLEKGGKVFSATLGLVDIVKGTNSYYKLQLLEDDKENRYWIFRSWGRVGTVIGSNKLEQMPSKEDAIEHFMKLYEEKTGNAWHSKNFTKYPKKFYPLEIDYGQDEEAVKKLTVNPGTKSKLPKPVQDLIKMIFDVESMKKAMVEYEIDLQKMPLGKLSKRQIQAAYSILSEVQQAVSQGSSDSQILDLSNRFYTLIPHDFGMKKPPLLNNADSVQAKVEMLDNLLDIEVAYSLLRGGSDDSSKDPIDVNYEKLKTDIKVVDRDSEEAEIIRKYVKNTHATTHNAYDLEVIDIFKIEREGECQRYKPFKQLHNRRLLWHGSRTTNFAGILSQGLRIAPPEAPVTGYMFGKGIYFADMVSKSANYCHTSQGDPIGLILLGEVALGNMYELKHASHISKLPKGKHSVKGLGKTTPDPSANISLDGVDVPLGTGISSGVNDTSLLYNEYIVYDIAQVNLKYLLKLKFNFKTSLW

As for `CCc1cc2ncc(CN3CCN(c4ccc(C#N)nc4)[C@H]4C[C@H]43)cc2[nH]c1=O` (single isomer, unassigned) [Example 14], the figures for the IC50 on PARP1 and on PARP2 were 5.01 nM and 6310 nM, respectively. Moreover, the values for the EC50 (in the test on DLD-1 BRCA2(−/−) cells; in test [1]) were 63.1 nM and 50.1 nM, respectively.

Regarding `CCc1cc2ncc(CN3CCN(c4ccc(C#N)nc4)[C@@H]4C[C@@H]43)cc2[nH]c1=O` (single isomer, unassigned) [Example 15], the results for the IC50 on PARP1 and on PARP2 were 5.01 nM and 10000 nM, respectively. Besides, the EC50 with DLD-1 BRCA2(−/−) cells is 7.94 nM; in test [1], 5.01 nM.

As to `Cc1cc2ncc(CN3CCN(c4ccc(C#N)cn4)[C@H]4C[C@H]43)cc2[nH]c1=O` (single isomer, unassigned) [Example 19], the IC50 was 6.31 nM on PARP1 and greater than 100000 nM at PARP2. The EC50 in the test on DLD-1 BRCA2(−/−) cells is 200 nM; in test [1], 158 nM.

For `C#Cc1cc2ncc(CN3CCN(c4ccc(C#N)nc4)CC3)cc2[nH]c1=O` [Example 1, 5-{4-[(7-ethynyl-6-oxo-5H-1,5-naphthyridin-3-yl)methyl]piperazin-1-yl}pyridine-2-carbonitrile], on PARP1, the IC50 was 15.8 nM. Moreover, the EC50 (with DLD-1 BRCA2(−/−) cells; in test [1]) was 63.1 nM throughout.

Turning to `CCc1cc2ncc(CN3CCN(c4ccc(F)cn4)CC3)cc2[nH]c1=O` [Example 4], the EC50 (in the test with DLD-1 BRCA2(−/−) cells; in test [1]) was 2 nM each time.

With `CCc1nc2cc(F)c(CN3CCN(c4ccc(C#N)cn4)CC3)cc2[nH]c1=O` [Example 12, 6-{4-[(2-ethyl-7-fluoro-3-oxo-4H-quinoxalin-6-yl)methyl]piperazin-1-yl}pyridine-3-carbonitrile], at PARP1, the IC50 is 7.94 nM. The EC50 (in the test on DLD-1 BRCA2(−/−) cells; in test [1]) was 10 nM each time.

With `N#Cc1ccc(N2CCN(Cc3cnc4cc(C5CC5)c(=O)[nH]c4c3)CC2)nc1` [Example 17], the EC50 with DLD-1 BRCA2(−/−) cells is 2.51 nM; in test [1] it was 2 nM.

With `CCc1cc2ncc(CN3CCN(c4ccc(C#N)cc4F)CC3)cc2[nH]c1=O` [Example 45], the results for the EC50 (in the test with DLD-1 BRCA2(−/−) cells; in test [1]) were 1.26 nM and 1 nM, respectively.

On to `N#Cc1ccc(N2CCN(Cc3cnc4cc(C5CC5)c(=O)[nH]c4c3)CC2)c(F)c1` [Example 46], for which the IC50 at PARP1 is 10 nM. The EC50 with DLD-1 BRCA2(−/−) cells is 2 nM; in test [1], 1.58 nM.

As for `O=c1[nH]c2cc(CN3CCN(c4ccc(F)cn4)CC3)cnc2cc1Cl` [Example 47, 3-chloro-7-{[4-(5-fluoropyridin-2-yl)piperazin-1-yl]methyl}-1H-1,5-naphthyridin-2-one], the IC50 on PARP1 is 10 nM. Also, the figures for the EC50 (in the test with DLD-1 BRCA2(−/−) cells; in test [1]) were 2.51 nM and 7.94 nM, respectively.

As for `Cc1nc2c(F)cc(CN3CCN(c4ccc(C#N)cn4)CC3)cc2[nH]c1=O` [Example 49, 6-{4-[(8-fluoro-2-methyl-3-oxo-4H-quinoxalin-6-yl)methyl]piperazin-1-yl}pyridine-3-carbonitrile], at PARP1, the IC50 is 10 nM. Also, the EC50 with DLD-1 BRCA2(−/−) cells is 10 nM; in test [1] it was 12.6 nM.

With `Cc1cc2ncc(CN3CCN(c4ccc(C#N)cc4C#N)CC3)cc2[nH]c1=O` [Example 50], the IC50 at PARP1 is 25.1 nM. In addition, the EC50 was 2 nM with DLD-1 BRCA2(−/−) cells and 1.58 nM in test [1].

For the compound `Cc1cc2ncc(CN3CCN(c4ccc(Cl)cc4C#N)CC3)cc2[nH]c1=O` [Example 51], the IC50 at PARP1 is 20 nM. Further, the EC50 in the test on DLD-1 BRCA2(−/−) cells was 3.98 nM; in test [1], 2.51 nM.

Turning to `Cc1cc2ncc(CN3CCN(c4cc(F)c(F)cc4C#N)CC3)cc2[nH]c1=O` [Example 53], on PARP1, the IC50 is 12.6 nM. The EC50 with DLD-1 BRCA2(−/−) cells is 6.31 nM; in test [1] it was 5.01 nM.

As for `CCc1cc2ncc(CN3CCN(c4ncc(C#N)cc4F)CC3)cc2[nH]c1=O` [Example 54], at PARP1, the IC50 is 63.1 nM. For the same compound, the EC50 in the test with DLD-1 BRCA2(−/−) cells is 63.1 nM; in test [1] it was 79.4 nM.

For `CCc1cc2ncc(CN3CCN(c4ncc(F)cc4C#N)CC3)cc2[nH]c1=O` [Example 56], the IC50 on PARP1 is 15.8 nM. The EC50 is 100 nM in the test with DLD-1 BRCA2(−/−) cells and 63.1 nM in test [1].

Turning to `N#Cc1ccc(N2CCN(Cc3cnc4cc(C(F)F)c(=O)[nH]c4c3)CC2)c(F)n1` [Example 62], the IC50 at PARP1 is 63.1 nM. The EC50 with DLD-1 BRCA2(−/−) cells is 1.58 nM; in test [1], 1.26 nM.

Take `CCc1cc2ncc(CN3CCN(c4cnc(Cl)cc4C#N)CC3)cc2[nH]c1=O` [Example 65]: the EC50 in the test with DLD-1 BRCA2(−/−) cells was 3.16 nM; in test [1], 2.51 nM.

For the compound `Cc1nc2ccc(CN3CCN(c4ccc(C#N)cn4)CC3)c(F)c2[nH]c1=O` [Example 70], at PARP1, the IC50 was 10 nM. In addition, the EC50 with DLD-1 BRCA2(−/−) cells is 25.1 nM; in test [1], 31.6 nM.

`Cc1cc2ccc(CN3CCN(c4ccc(C#N)cn4)CC3)c(F)c2[nH]c1=O` [Example 71, 6-{4-[(8-fluoro-3-methyl-2-oxo-1H-quinolin-7-yl)methyl]piperazin-1-yl}pyridine-3-carbonitrile]: the IC50 at PARP1 was 10 nM. The EC50 was 12.6 nM in the test on DLD-1 BRCA2(−/−) cells and 15.8 nM in test [1].

For the compound `Cc1nc2c(F)c(F)c(CN3CCN(c4ccc(C#N)cn4)CC3)cc2[nH]c1=O` [Example 72], the IC50 at PARP1 is 15.8 nM. Further, the EC50 was 63.1 nM in the test on DLD-1 BRCA2(−/−) cells and 39.8 nM in test [1].

Take `Cc1nc2ccc(CN3CCN(c4ccc(C#N)nc4Cl)CC3)c(F)c2[nH]c1=O` [Example 73]: the IC50 on PARP1 was 25.1 nM. Further, the EC50 was 20 nM in the test with DLD-1 BRCA2(−/−) cells and 15.8 nM in test [1].

`Cc1nc2ccc(CN3CCN(c4ccc(C#N)nc4F)CC3)c(F)c2[nH]c1=O` [Example 74]: the IC50 on PARP1 was 15.8 nM. The results for the EC50 (in the test on DLD-1 BRCA2(−/−) cells; in test [1]) were 20 nM and 31.6 nM, respectively.

For `Cc1cc(C#N)ccc1N1CCN(Cc2cnc3cc(C(F)F)c(=O)[nH]c3c2)CC1` [Example 75], the IC50 on PARP1 is 25.1 nM. Also, the EC50 in the test on DLD-1 BRCA2(−/−) cells is 0.631 nM; in test [1] it was 0.501 nM.

For `N#Cc1ccc(N2CCN(Cc3cnc4cc(Cl)c(=O)[nH]c4c3)CC2)c(F)c1` [Example 76], on PARP1, the IC50 was 63.1 nM. The EC50 (in the test on DLD-1 BRCA2(−/−) cells; in test [1]) was 5.01 nM in each case.

As to `N#Cc1ccc(N2CCN(Cc3cnc4cc(C(F)F)c(=O)[nH]c4c3)CC2)c(C(F)F)c1` [Example 80], the IC50 on PARP1 was 15.8 nM. Besides, the EC50 in the test on DLD-1 BRCA2(−/−) cells is 1.26 nM; in test [1] it was 1 nM.

Take `N#Cc1ccc(N2CCN(Cc3cnc4cc(C(F)F)c(=O)[nH]c4c3)CC2)c(Cl)n1` [Example 81]: the IC50 at PARP1 was 10 nM. For the same compound, the EC50 (in the test with DLD-1 BRCA2(−/−) cells; in test [1]) was 0.631 nM in each case.

As to `Cc1c(C(F)F)c2ncc(CN3CCN(c4ccc(C#N)cn4)CC3)cc2[nH]c1=O` [Example 82, 6-(4-((8-(difluoromethyl)-7-methyl-6-oxo-5,6-dihydro-1,5-naphthyridin-3-yl)methyl)piperazin-1-yl)nicotinonitrile], on PARP1, the IC50 was 31.6 nM. In addition, the EC50 with DLD-1 BRCA2(−/−) cells was 100 nM; in test [1], 39.8 nM.

In the case of `N#Cc1ccc(N2CCN(Cc3ccc4cc(Cl)c(=O)[nH]c4c3F)CC2)nc1` [Example 83, 6-{4-[(3-chloro-8-fluoro-2-oxo-1H-quinolin-7-yl)methyl]piperazin-1-yl}pyridine-3-carbonitrile], the IC50 at PARP1 was 10 nM. Also, the EC50 in the test on DLD-1 BRCA2(−/−) cells was 10 nM; in test [1] it was 6.31 nM.
